# In US6677358B1, “NIDDM regimen” (Novo Nordisk A/S, priority 1997, dated 2004):
# “And” between values parts separate entries of the source, which are not always exact repeats. Identical values can stand only once. Like-named read-outs stand apart in the source and are kept apart here.
# How the values were obtained:
# [1] = tested on: NIDDM patients inadequately controlled on metformin alone; details: for Change in FPG / Change in HbA1c (%) / Change in C peptide / Change in fasting insulin (mU/l): mean ± SEM; for Change in FPG / Change in HbA1c (%): baseline to end of 3-month maintenance period; for Change in C peptide / Change in fasting insulin (mU/l): baseline to end of maintenance treatment period
# NIDDM patients = experiment: Repaglinide 3 times daily before meals (REP3) vs twice daily (REP2), 4-week double-blind study; details: for Fasting blood glucose (mean ±SEM) after 4 weeks: doubled after 2 weeks
# Experimental: The potential impact of tailoring insulin release to meal in-take was investigated in a study comparing 3 times daily dosing with repaglinide just before meals to the same dosage administered twice daily. Eighteen OHA-naive NIDDM patients entered a 4-week, single centre, double-blind study, and were randomised to either 0.25 mg repaglinide before breakfast, lunch and dinner (REP3), or 0.5 mg before breakfast, placebo at lunch, and 0.25 mg before dinner (REP2). After two weeks the doses were doubled.
# After 2 weeks, the doses were doubled to 0.5 mg before each meal (REP3) and 1 mg+0.5 mg (REP2).
# [2] = Half-life (duration of action) of repaglinide; details: in vivo
# [3] = tested on: patients with type 2 diabetes; experiment: Flexible meal-related dosing study of repaglinide (mixed vs fixed regimen), open-label parallel group; assay type: in vivo, human; details: for Mean fructosamine: 1 mg preprandially, end of 21 days
# Experimental: In a single-centre, randomised, open-label, parallel group comparison study it was investigated whether repaglinide given preprandially will maintain glycaemic control in patients who skip a meal (lunch) or have an extra meal (bedtime snack) [mixed regimen] as compared with those who have three regular meals [fixed regimen].
# A total of 25 diet-treated patients with type 2 diabetes were enrolled (18 men and 7 women) and given a fixed 1 mg dose of repaglinide preprandially (therapeutic dose range: 0.5-4 mg). After one week of stabilisation patients were randomised to the mixed or fixed regimen for a period of 21 days if blood glucose was >140 mg/dl.
structure (smiles),measurement,setting,value
"CN(C)C(=N)N=C(N)N [Metformin, metformin]",Change in mean body weight during the study,[1]; in vivo,-0.86 ± 0.51 kg
same,Frequency of drug-related adverse events,[1]; in vivo,14.8%
same,Gastrointestinal side effects,[1]; in vivo,7.4%
same,Patients reporting hypoglycemic episodes (number),[1]; in vivo,none
same,Change in FPG,[1],-0.25 mmol/L
same,Change in HbA1c (%),[1],−0.33%
same,Change in FPG,[1]; listed as MET,-0.25 mmol/L
same,Change in HbA1c (%),[1]; listed as MET,−0.33%
same,Change in C peptide,[1],0.02 nmol/L
same,Change in fasting insulin (mU/l),[1],1.05 ± 1.60 mU/l
"CCOc1cc(CC(=O)N[C@@H](CC(C)C)c2ccccc2N2CCCCC2)ccc1C(=O)O [Repaglinide, (S)-(+)-2-ethoxy-4-[2-[[3-methyl-1-[2-(1-piperidinyl)phenyl]butyl]amino]-2-oxo-ethyl]benzoic acid]",Frequency of drug-related adverse events,"[1]; human, in vivo",25.0%
same,Gastrointestinal side effects,"[1]; human, in vivo",3.6%
same,Patients reporting hypoglycemic episodes (%),"[1]; human, in vivo",17.9%
same,Patients reporting hypoglycemic episodes (number),"[1]; human, in vivo",3 patients
same,Change in mean body weight during the study,[1]; in vivo,+2.98±0.49 kg
same,Change in FPG,[1],0.49 mmol/L
same,Change in HbA1c (%),[1],−0.38%
same,Change in FPG,[1]; listed as REP,0.49 mmol/L
same,Change in HbA1c (%),[1]; listed as REP,−0.38%
same,Change in C peptide,[1],0.18 nmol/L
same,Change in fasting insulin (mU/l),[1],4.04 ± 1.56 mU/l
same,Blood glucose (AUC0-24 h) after 4 weeks,NIDDM patients; REP2 (twice daily),8.91 mmol/L
same,Increase in normed AUC0-24 h for plasma insulin,"NIDDM patients; REP2, after 4 weeks",20%
same,Fasting blood glucose (mean ±SEM) after 4 weeks,"NIDDM patients; REP2: 0.5 mg before breakfast + 0.25 mg before dinner, baseline 11.3±0.73, 11.2",9.6 mmol/L and 9.6 ± 0.7 mmol/L
same,HbA1c (±SEM) after 4 weeks,"NIDDM patients; REP2, baseline 7.12±0.24, decrease non-significant",6.8% and 6.84±0.34%
same,Blood glucose (AUC0-24 h) after 4 weeks,"NIDDM patients; REP3 (three times daily before meals), P<0.05 vs REP2",7.00 mmol/L
same,Increase in normed AUC0-24 h for plasma insulin,"NIDDM patients; REP3, after 4 weeks",35-40%
same,Fasting blood glucose (mean ±SEM) after 4 weeks,"NIDDM patients; REP3: 0.25 mg, before each of three main meals, baseline 11.1±1.24, 11.2",8.4 mmol/L and 8.4 ± 1.01 mmol/L
same,HbA1c (±SEM) after 4 weeks,"NIDDM patients; REP3, baseline 7.51±0.78, P=0.004",6.5% and 6.51±0.64%
same,"Postprandial blood glucose, lower with REP3 than with REP2","NIDDM patients; after 4 weeks, P<0.05",about 2.5 mmol/l
same,Normed AUC0-24 h for plasma C-peptide,"NIDDM patients; both groups (REP2, REP3), after 4 weeks",increased in both groups
same,Plasma insulin before the next meal,NIDDM patients; both treatment groups,decreased to pre-treatment levels
same,Plasma insulin during the night in comparison with pre-treatment levels,NIDDM patients; both treatment groups,no increase
same,Non-serious adverse events,NIDDM patients; either treatment group,mild hypoglycemic episodes and one case of influenza
same,Serious adverse events,NIDDM patients; either treatment group,No serious adverse events
same,T½ (short duration of action),[2],one
same,"Blood glucose AUC over 24 hours, difference between fixed and mixed groups",[3]; 37-point blood glucose profile,not statistically significant
same,Hypoglycaemic episodes or serious adverse events,[3]; both regimens,no hypoglycaemic episodes or serious adverse events were reported
same,Mean fructosamine,"[3]; fixed regimen (three regular meals), decreased from 3.10, p<0.05",2.68 mmol/L
same,Tolerability of dose regimens,[3]; in vivo,well tolerated
same,Blood glucose levels when lunch was omitted,[3]; mixed regimen,remained stable until next meal
same,Mean fructosamine,"[3]; mixed regimen (skipped lunch or extra bedtime snack), decreased from 3.37, p<0.05",2.85 mmol/L
same,Mean fasting blood glucose (FBG),"[3]; value decreased to, both groups (fixed and mixed regimen)",approximately 120 mg/dl
